Earlier results as cited in patent US4579840A, “Method of blocking immune complex binding to immunoglobulin Fc receptors” (Immunetech Pharmaceuticals, priority 1983, dated 1986).
Ends that are not written are not given here.

What was measured:
[1] = system: local cutaneous allergic reaction (Prausnitz-Kustner); conditions: Hamburger 1975; cited from earlier work
[2] = system: systemic allergic disease; conditions: after injection by the subcutaneous route; cited from earlier work
[3] = molecular target: T1, IgE Fc receptor of human basophils (Homo sapiens, UniProt P12319); conditions: Plummer et al. 1983; cited from earlier work
T1 construct: host or cells: human basophils
T1 sequence (P12319 26-257): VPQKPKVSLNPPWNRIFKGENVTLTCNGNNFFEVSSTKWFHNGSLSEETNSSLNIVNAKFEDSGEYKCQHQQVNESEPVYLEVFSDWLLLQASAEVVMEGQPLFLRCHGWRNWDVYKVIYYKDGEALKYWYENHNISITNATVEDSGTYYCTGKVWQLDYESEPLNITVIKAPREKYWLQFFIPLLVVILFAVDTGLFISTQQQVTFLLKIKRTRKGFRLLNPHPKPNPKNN
T1 sequence (Q01362 1-244 partner): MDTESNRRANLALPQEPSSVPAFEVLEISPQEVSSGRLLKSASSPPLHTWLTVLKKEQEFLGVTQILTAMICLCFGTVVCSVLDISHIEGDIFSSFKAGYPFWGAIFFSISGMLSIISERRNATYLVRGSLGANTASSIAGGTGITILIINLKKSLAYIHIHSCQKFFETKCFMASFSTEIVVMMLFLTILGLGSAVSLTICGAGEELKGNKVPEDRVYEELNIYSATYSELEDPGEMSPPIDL
T1 sequence (P30273 19-86 partner): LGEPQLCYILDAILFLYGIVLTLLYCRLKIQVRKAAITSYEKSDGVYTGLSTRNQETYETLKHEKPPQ

[4] = system: human and rodent mast cells; conditions: Stanworth et al. 1979; cited from earlier work
[5] = system: macrophage IgG Fc receptors of mice; conditions: Stanworth 1982; cited from earlier work
[6] = system: human monocyte IgG Fc receptors; conditions: literature (Ciccimarra 1975; Stanworth 1982; Ratcliffe and Stanworth 1982); Tuftsin also 'ourselves'; cited from earlier work
[7] = system: granulocytes, monocytes and macrophages; conditions: in vitro; literature; cited from earlier work
C1 = C1 (Homo sapiens, UniProt P02745+P02746+P02747); conditions: Prystowsky et al. 1981, Lukas et al. 1981; cited from earlier work
Sequence of C1 (P02745 23-245): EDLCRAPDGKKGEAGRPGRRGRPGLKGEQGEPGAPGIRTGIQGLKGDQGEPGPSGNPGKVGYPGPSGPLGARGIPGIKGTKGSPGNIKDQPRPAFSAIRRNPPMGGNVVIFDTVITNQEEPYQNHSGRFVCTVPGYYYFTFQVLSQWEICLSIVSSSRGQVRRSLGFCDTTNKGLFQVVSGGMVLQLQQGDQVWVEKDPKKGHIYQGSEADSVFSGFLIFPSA
Sequence of C1 (P02746 28-253): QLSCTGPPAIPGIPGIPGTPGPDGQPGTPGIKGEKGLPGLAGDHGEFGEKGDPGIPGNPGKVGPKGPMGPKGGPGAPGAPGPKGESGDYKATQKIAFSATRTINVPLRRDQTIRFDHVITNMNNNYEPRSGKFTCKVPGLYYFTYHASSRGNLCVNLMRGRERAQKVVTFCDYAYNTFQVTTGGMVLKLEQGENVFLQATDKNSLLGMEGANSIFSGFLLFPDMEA
Sequence of C1 (P02747 29-245): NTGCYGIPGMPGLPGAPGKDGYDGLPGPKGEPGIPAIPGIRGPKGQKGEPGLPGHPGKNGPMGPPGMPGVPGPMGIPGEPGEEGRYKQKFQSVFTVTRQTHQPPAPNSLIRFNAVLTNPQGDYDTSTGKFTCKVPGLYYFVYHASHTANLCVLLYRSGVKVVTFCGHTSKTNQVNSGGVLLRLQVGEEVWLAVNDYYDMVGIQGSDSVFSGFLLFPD
Sequence of C1 (P00736 18-705 partner): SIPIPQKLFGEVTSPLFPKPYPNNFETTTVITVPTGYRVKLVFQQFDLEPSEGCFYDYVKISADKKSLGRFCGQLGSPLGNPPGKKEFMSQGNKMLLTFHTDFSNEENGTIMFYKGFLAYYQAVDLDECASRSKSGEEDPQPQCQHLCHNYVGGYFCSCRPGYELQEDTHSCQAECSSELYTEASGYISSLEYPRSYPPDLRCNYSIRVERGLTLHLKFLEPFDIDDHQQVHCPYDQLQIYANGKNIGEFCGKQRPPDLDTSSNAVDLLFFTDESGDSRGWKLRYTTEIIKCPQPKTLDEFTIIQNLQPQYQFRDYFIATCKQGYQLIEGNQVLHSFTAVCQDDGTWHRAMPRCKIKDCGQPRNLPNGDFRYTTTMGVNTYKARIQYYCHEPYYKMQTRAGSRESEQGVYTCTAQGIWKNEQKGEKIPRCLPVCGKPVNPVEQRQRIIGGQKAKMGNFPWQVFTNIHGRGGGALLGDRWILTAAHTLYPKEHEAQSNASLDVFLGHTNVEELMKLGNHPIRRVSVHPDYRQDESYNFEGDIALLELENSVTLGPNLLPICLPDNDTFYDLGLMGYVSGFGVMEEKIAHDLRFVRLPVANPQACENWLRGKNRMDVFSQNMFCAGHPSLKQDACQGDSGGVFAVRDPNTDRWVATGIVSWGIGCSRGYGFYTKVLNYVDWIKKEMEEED
Sequence of C1 (P09871 16-688 partner): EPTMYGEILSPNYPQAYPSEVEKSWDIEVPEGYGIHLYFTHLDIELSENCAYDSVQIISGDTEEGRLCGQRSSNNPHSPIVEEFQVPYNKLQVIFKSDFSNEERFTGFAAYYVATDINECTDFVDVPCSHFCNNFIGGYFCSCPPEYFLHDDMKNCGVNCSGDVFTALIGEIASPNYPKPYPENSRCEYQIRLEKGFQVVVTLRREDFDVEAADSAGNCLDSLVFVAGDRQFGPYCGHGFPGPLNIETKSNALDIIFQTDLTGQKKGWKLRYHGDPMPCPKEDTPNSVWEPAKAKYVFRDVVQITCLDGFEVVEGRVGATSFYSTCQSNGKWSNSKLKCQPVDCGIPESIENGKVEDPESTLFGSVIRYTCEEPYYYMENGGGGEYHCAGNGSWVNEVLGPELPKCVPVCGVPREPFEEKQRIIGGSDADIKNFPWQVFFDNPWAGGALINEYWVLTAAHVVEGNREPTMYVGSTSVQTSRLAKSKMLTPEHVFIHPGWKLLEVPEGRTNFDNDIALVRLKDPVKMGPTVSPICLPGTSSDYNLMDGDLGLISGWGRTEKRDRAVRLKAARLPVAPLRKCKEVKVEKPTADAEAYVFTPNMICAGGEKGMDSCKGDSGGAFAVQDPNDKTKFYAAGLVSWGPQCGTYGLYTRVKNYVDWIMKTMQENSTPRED

lymphocytes = conditions: Morgan, Huguli and Weigle 1982; cited from earlier work

## Asp-Ser-Asp-Pro-Arg (DSDPR; printed: Asp-Ser-Asp-Pro-Arg)
[1]
  inhibition of local cutaneous allergic reaction (Prausnitz-Kustner): approximately 90%
[2]
  effect on systemic allergic disease in humans: inhibit systemic allergic disease
[3]
  block of human IgE binding to basophil IgE Fc receptors: up to 70%

## PRKTKGSGFFVF
[4]
  degranulation of mast cells: able to cause degranulation

## VFSRLEVTRAE
[5]
  binding of 125I-human IgG to mouse macrophages: marked enhancement

## QYDSTYR
[6]
  blocking of human IgG binding to human monocyte IgG Fc receptors: could slightly block

## Gly-Gln-Pro-Arg (GQPR; printed: Gly-Gln-Pro-Arg) [Rigin]
[7]
  stimulation of phagocytosis: phagocytosis-stimulating abilities similar to those of Tuftsin

## Thr-Lys-Pro-Arg (TKPR; printed: Thr-Lys-Pro-Arg) [Tuftsin]
C1
  inhibition of C1-mediated hemolysis: less active
[6]
  blocking of human IgG binding to human monocyte IgG Fc receptors: competitively inhibits
[7]
  stimulation of phagocytosis: active at nanomolar concentrations

## TISKAKGQPREPQVYTLPSREEM
lymphocytes
  nonspecific activation of lymphocytes: induce polyclonal B cell proliferation, antigen-specific antibody responses and Natural Killer (NK) cell-mediated lysis

## Val-Gln-Val-His-Asn-Ala-Lys-Thr-Lys-Pro-Arg-OH (VQVHNAKTKPR-OH)
C1
  inhibition of C1-mediated hemolysis: approximately as active as inhibitors as intact monomeric IgG
